In patent US9758492B2, “IDO inhibitors” (Bristol-Myers Squibb Company, priority 2013, dated 2017):

Assays:
Human IDO1 = molecular target: T1, Human IDO1 (Homo sapiens, UniProt P14902); assay: IDO Kynurenine Assay with Human IDO1/HEK293 Cells; format: cell-based; conditions: read-out: HEK human IDO-1 (IC50)
T1 construct: expressed in transfected cells; host or cells: HEK293
Method in brief: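 HEK293 cells stably expressing human IDO1, in phenol red-free RPMI/10% FBS, exposed to compound for 20 h at 37 °C. Stopped with 0.2% TCA (50 °C, 30 min); kynurenine in supernatant detected with Ehrlich reagent, absorbance 490 nm.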

IDO = IDO (Homo sapiens, UniProt P14902); assay: LLE_IDO_ABS_DR (IDO assay)
Sequence of IDO (P14902 whole entry): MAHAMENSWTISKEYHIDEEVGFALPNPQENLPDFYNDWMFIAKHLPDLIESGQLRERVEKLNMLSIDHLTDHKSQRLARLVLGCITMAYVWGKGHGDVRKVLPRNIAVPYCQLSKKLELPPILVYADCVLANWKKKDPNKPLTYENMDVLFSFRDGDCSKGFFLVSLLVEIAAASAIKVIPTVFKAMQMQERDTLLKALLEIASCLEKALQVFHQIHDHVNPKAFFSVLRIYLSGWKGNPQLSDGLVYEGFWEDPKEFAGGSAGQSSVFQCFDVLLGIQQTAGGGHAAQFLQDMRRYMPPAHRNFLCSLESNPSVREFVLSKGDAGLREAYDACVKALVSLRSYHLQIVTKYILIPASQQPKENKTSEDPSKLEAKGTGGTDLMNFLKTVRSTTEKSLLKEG

T1 sequence (P14902 whole entry): as above

| Compound | IC50 (Human IDO1) [nM] | IC50 (IDO) [nM] |
| --- | --- | --- |
| O=C(Nc1ccc(C2CC2)cc1)Nc1cc(-c2ccccc2-c2nnn[nH]2)ccc1N(CCCC(F)(F)F)Cc1ccc(Cl)cc1 [Example 349, 1-(4-((4-chlorobenzyl)(4,4,4-trifluorobutyl)amino)-2′-(1H-tetrazol-5-yl)-[1,1′-biphenyl]-3-yl)-3-(4-cyclopropylphenyl)urea] | 130 | 7.49 |
| Cc1cc(NC(=O)Nc2cc(-c3ccccc3-c3nnn[nH]3)ccc2N(CC(C)C)CC2CC(F)(F)C2)on1 [Example 382] | 350 | 500 |
| Cc1ccc(NC(=O)Nc2cc(-c3ccccc3C(=O)O)ccc2N(CCC(F)(F)F)Cc2ccc(Cl)cc2)cc1 [Example 14, 4′-((4-Chlorobenzyl)(3,3,3-trifluoropropyl)amino)-3′-(3-(p-tolyl)ureido)-[1,1′-biphenyl]-2-carboxylic acid] | 100 | 80 |
| Cc1ccc(NC(=O)Nc2cc(-c3ccccc3C(=O)O)ccc2N(CC(C)C)C2CCOCC2)cc1 [Example 378] | 70 | 60 |
| Cc1ccc(NC(=O)Nc2cc(-c3cccc(F)c3C(=O)O)ccc2N(CC(C)C)CC(C)C)cc1 [Example 150, 4′-(diisobutylamino)-3-fluoro-3′-(3-p-tolylureido)biphenyl-2-carboxylic acid] | 60 | 40 |
| Cc1ccc(NC(=O)Nc2cc(-c3cc(F)ccc3C(=O)O)ccc2N2CCCc3ccccc32)cc1 [Example 373, 4′-(3,4-Dihydroquinolin-1(2H)-yl)-5-fluoro-3′-(3-(p-tolyl)ureido)-[1,1′-biphenyl]-2-carboxylic acid] | 4000 | 3340 |

Compounds with a lower IC50 (Human IDO1), results first:

| IC50 (Human IDO1) [nM] | IC50 (IDO) [nM] | Compound |
| --- | --- | --- |
| 1.78 | 1.84 | CC(C)CN(CC(C)C)c1ccc(-c2ccccc2-c2nnn[nH]2)cc1NC(=O)Nc1ccc(Br)cc1F [Example 38, 1-(4-Bromo-2-fluorophenyl)-3-(4-(diisobutylamino)-2′-(1H-tetrazol-5-yl)biphenyl-3-yl)urea] |
| 5.53 | 3.26 | O=C(Nc1ccc(C2CC2)cc1)Nc1cc(-c2ccccc2-c2nnn[nH]2)ccc1N(CCC(F)(F)F)Cc1ccc(OC(F)(F)F)cc1 [Example 302, 1-(2′-(1H-tetrazol-5-yl)-4-((4-(trifluoromethoxy)benzyl)(3,3,3-trifluoropropyl)amino)-[1,1′-biphenyl]-3-yl)-3-(4-cyclopropylphenyl)urea] |
| 50 | 20 | O=C(Nc1ccc(C2CC2)cc1)Nc1cc(-c2ccccc2-c2nnn[nH]2)ccc1N(CCC(F)(F)F)Cc1ccc(F)cc1C(F)(F)F [Example 299, 1-(4-cyclopropylphenyl)-3-(4-((4-fluoro-2-(trifluoromethyl)benzyl) (3,3,3-trifluoropropyl)amino)-2′-(1H-tetrazol-5-yl)-[1,1′-biphenyl]-3-yl)urea] |
| 6.31 | 1.78 | Cc1ccc(NC(=O)Nc2cc(-c3cc(F)ccc3C(=O)O)cc(Cl)c2N(CC(C)C)CC(C)C)cc1 [Example 41, 3′-Chloro-4′-(diisobutylamino)-5-fluoro-5′-(3-p-tolylureido)biphenyl-2-carboxylic acid] |
| 50 | 30 | Cc1ccc(NC(=O)Nc2cc(-c3ccccc3-c3nnn[nH]3)ccc2N2CC3CC2CN3Cc2ccccc2)cc1 (centres unmarked) [Example 317, 1-(4-(5-benzyl-2,5-diazabicyclo[2.2.1]heptan-2-yl)-2′-(1H-tetrazol-5-yl)-[1,1′-biphenyl]-3-yl)-3-(p-tolyl)urea] |
| 50 | 2.88 | Cc1ccc(NC(=O)Nc2cc(-c3ccccc3C(=O)O)ccc2N(CC(C)C)C2CCC(F)(F)CC2)cc1 [Example 512, 4′-((4,4-Difluorocyclohexyl)(isobutyl)amino)-3′-(3-(p-tolyl)ureido)-[1,1′-biphenyl]-2-carboxylic acid] |
| 0.845 | 1.73 | Cc1ccc(NC(=O)Nc2cc(-c3ccccc3-c3nnn[nH]3)ccc2N(CCC(F)(F)F)Cc2ccc(OC(F)(F)F)cc2)cc1 [Example 341, 1-(2′-(1H-tetrazol-5-yl)-4-((4-(trifluoromethoxy)benzyl)(3,3,3-trifluoropropyl)amino)-[1,1′-biphenyl]-3-yl)-3-(p-tolyl)urea] |
